Test results published in paper PMC9322071, “Computer-Aided Design and Synthesis of (Functionalized quinazoline)–(α-substituted coumarin)–arylsulfonate Conjugates against Chikungunya Virus” (International Journal of Molecular Sciences, 2022).
Like-named read-outs stand apart in the source and are kept apart here.

Tests used:
[1] = tested on: CHIKV Indian Ocean strain 899; assay: Anti-CHIKV CPE assay on Vero cells; details: for EC50: Chikungunya virus, Vero; for SI: ratio of CC50 to EC50
[2] = Lipophilicity by shake-flask method
[3] = Cytotoxicity assay (metabolic activity of compound-treated cells); details: African green monkey
CHIKV [4] = tested on: CHIKV; parameters: method as in PMID 23275491; details: CHIKV inhibition; cited from earlier work
[5] = cited from earlier work
CHIKV isolate = CHIKV isolate replication; cited from earlier work
CHIKV [6] = details: cited from earlier work

| SMILES | EC50 [1] [µM] | SI [1] | logP [2] | CC50 [3] [µM] | further results |
| --- | --- | --- | --- | --- | --- |
| O=c1oc2cc(OS(=O)(=O)c3ccccc3)ccc2cc1CSc1nc(Nc2ccccc2)c2ccccc2n1 [Compound 2b, 2′-Oxo-3′-[([4-(phenylamino)quinazolin-2-yl]thio)methyl]-2H-chromen-7′-yl Benzenesulfonate] | 3.84 | 18.8 | 5.27 | 72.3 | fold more potent than quinazolinone conjugate 10a ([1]; EC50 comparison 2b vs 10a): 2.0 times; fold improvement of SI in comparison with 10a ([1]; SI comparison 2b vs 10a): 3.68 times |
| O=c1oc2cc(OS(=O)(=O)c3ccccc3)ccc2cc1CSc1nc2ccccc2c(=O)[nH]1 [Compound 10a, 2′-Oxo-3′-([(4-oxo-3,4-dihydroquinazolin-2-yl)thio]methyl)-2H-chromen-7′-yl Benzenesulfonate] | 7.84 | 5.11 | 3.52 | 40.1 |  |
| COc1ccc(S(=O)(=O)Oc2ccc3cc(CSc4nc5ccccc5c(=O)[nH]4)c(=O)oc3c2)cc1 [Compound 10b, 2′-Oxo-3′-([(4-oxo-3,4-dihydroquinazolin-2-yl)thio]methyl)-2H-chromen-7′-yl 4″-Methoxybenzenesulfonate] | > 186 |  | 3.45 |  |  |
| O=c1oc2cc(OS(=O)(=O)c3ccc(F)cc3)ccc2cc1CSc1nc2ccccc2c(=O)[nH]1 [Compound 10c, 2′-Oxo-3′-([(4-oxo-3,4-dihydroquinazolin-2-yl)thio]methyl)-2H-chromen-7′-yl 4″-Fluorobenzenesulfonate] | 6.46 | 9.24 | 3.68 | 59.7 | fold more potent against CHIKV than β-substituted isomer 11 ([1]; EC50 comparison 10c vs 11): ~ 3 times; fold improvement of SI in comparison with β-11 ([1]; SI comparison 10c vs 11): 5.7 times |
| O=c1oc2cc(OS(=O)(=O)c3ccc(Br)cc3)ccc2cc1CSc1nc2ccccc2c(=O)[nH]1 [Compound 10d, 2′-Oxo-3′-([(4-oxo-3,4-dihydroquinazolin-2-yl)thio]methyl)-2H-chromen-7′-yl 4″-Bromobenzenesulfonate] | 18.4 | 3.40 | 3.94 | 62.6 |  |
| O=c1oc2cc(OS(=O)(=O)c3ccccc3[N+](=O)[O-])ccc2cc1CSc1nc2ccccc2c(=O)[nH]1 [Compound 10e, 2′-Oxo-3′-([(4-oxo-3,4-dihydroquinazolin-2-yl)thio]methyl)-2H-chromen-7′-yl 2″-Nitrobenzenesulfonate] | 12.7 | 5.06 | 3.48 | 64.3 |  |
| O=c1oc2cc(OS(=O)(=O)c3ccc([N+](=O)[O-])cc3)ccc2cc1CSc1nc2ccccc2c(=O)[nH]1 [Compound 10f, 2′-Oxo-3′-([(4-oxo-3,4-dihydroquinazolin-2-yl)thio]methyl)-2H-chromen-7′-yl 4″-Nitrobenzenesulfonate] | > 186 |  | 3.43 |  |  |
| COC(=O)C[C@](O)(CCC(C)(C)O)C(=O)O[C@@H]1C(OC)=C[C@]23CCCN2CCc2cc4c(cc2[C@H]13)OCO4 [Harringtonine, harringtonine] |  |  |  |  | EC50 (CHIKV [4]): 0.24 µM |
| Cc1ccc(C(=O)Nc2ccc(S(=O)(=O)O)c3cc(S(=O)(=O)O)cc(S(=O)(=O)O)c23)cc1NC(=O)c1cccc(NC(=O)Nc2cccc(C(=O)Nc3cc(C(=O)Nc4ccc(S(=O)(=O)O)c5cc(S(=O)(=O)O)cc(S(=O)(=O)O)c45)ccc3C)c2)c1 [Suramin] |  |  |  |  | CC50 [5]: > 5000 µM; EC50 (CHIKV isolate): ~80 µM |
| O=C(NN=Cc1ccccc1)C1CC1 [benzylidene(cyclopropane)carbohydrazide] |  |  |  |  | EC50 (CHIKV [6]; CHIKV-induced CPE): 5 µM; SI (CHIKV [6]): 14 |
